# Reference: patent US20030040486A1 (priority 2001, published 2003)
# Columns and labels:
# [1] = tested on: male Sprague-Dawley rats; experiment: Rat hindpaw withdrawal latency (HWL) to thermal stimulation, hot-plate test; format: in vivo; conditions: for HWL increase using thermal stimulation: drug alone, intrathecal, FIGS. 2A and 2B; for % Changes of HWL to Thermal Stimulation: intrathecal every 12 hrs: morphine 8 μg, nociceptin 10 nmol, or rotated every two days
# [2] = tested on: male Sprague-Dawley rats; experiment: Development of tolerance in the rat HWL study (thermal and mechanical stimulation); format: in vivo; conditions: for time to complete tolerance: intrathecal every 12 hrs, both hindpaws, thermal and mechanical HWL
# [3] = tested on: male Sprague-Dawley rats; experiment: Rat hindpaw withdrawal latency (HWL) to mechanical stimulation, Randall Selitto Test; format: in vivo; conditions: for HWL increase using mechanical stimulation: drug alone, intrathecal, FIGS. 2C and 2D; for % Changes of HWL to Mechanical Stimulation: intrathecal every 12 hrs: morphine 8 μg, nociceptin 10 nmol, or rotated every two days
# [4] = intrathecal administration; Jhamandas et al. 1998; cited from earlier work
# [5] = tested on: μ-opioid receptors; conditions: Hao et al. 1997; cited from earlier work
smiles,measurement,setting,value
"CN1CC[C@]23c4c5ccc(O)c4O[C@H]2[C@@H](O)C=C[C@H]3[C@H]1C5 [Morphine, morphine]",HWL increase using thermal stimulation,[1]; day 1,approximately 67%
same,time to complete tolerance,[2],6 days
same,HWL increase using mechanical stimulation,[3]; day 1,~55%
"CC(C)C[C@H](NC(=O)[C@H](CCCCN)NC(=O)[C@H](CCCN=C(N)N)NC(=O)[C@H](C)NC(=O)[C@H](CO)NC(=O)[C@H](CCCCN)NC(=O)[C@H](CCCN=C(N)N)NC(=O)[C@H](C)NC(=O)CNC(=O)[C@@H](NC(=O)[C@H](Cc1ccccc1)NC(=O)CNC(=O)CNC(=O)[C@@H](N)Cc1ccccc1)[C@@H](C)O)C(=O)N[C@@H](C)C(=O)N[C@@H](CC(N)=O)C(=O)N[C@@H](CCC(N)=O)C(=O)O [Nociceptin, nociceptin]",HWL increase using thermal stimulation,[1]; day 1,approximately 90%
same,% Changes of HWL to Thermal Stimulation,"[1]; day 1, left hindpaw",93.49 ± 3.77%
same,% Changes of HWL to Thermal Stimulation,"[1]; day 1, right hindpaw",90.42 ± 2.65%
same,% Changes of HWL to Thermal Stimulation,"[1]; day 2, left hindpaw",39.91 ± 3.66%
same,% Changes of HWL to Thermal Stimulation,"[1]; day 2, right hindpaw",43.02 ± 2.12%
same,% Changes of HWL to Thermal Stimulation,"[1]; day 3, left hindpaw",9.46 ± 2.31%
same,% Changes of HWL to Thermal Stimulation,"[1]; day 3, right hindpaw",12.01 ± 1.48%
same,% Changes of HWL to Thermal Stimulation,"[1]; day 4, left hindpaw",−2.18 ± 2.07%
same,% Changes of HWL to Thermal Stimulation,"[1]; day 4, right hindpaw",−3.67 ± 1.61%
same,duration of the antinociceptive response evoked by intrathecal deltorphin,[4],increase the duration
same,tolerance developed,"[2]; by day 2, nociceptin alone group",50%
same,time to complete tolerance,[2],4 days
same,binding to μ-opioid receptors,[5],does not bind
same,HWL increase using mechanical stimulation,[3]; day 1,60-70%
same,% Changes of HWL to Mechanical Stimulation,"[3]; day 1, left hindpaw",69.90 ± 4.11%
same,% Changes of HWL to Mechanical Stimulation,"[3]; day 1, right hindpaw",61.26 ± 3.85%
same,% Changes of HWL to Mechanical Stimulation,"[3]; day 2, left hindpaw",31.28 ± 5.03%
same,% Changes of HWL to Mechanical Stimulation,"[3]; day 2, right hindpaw",30.79 ± 6.58%
same,% Changes of HWL to Mechanical Stimulation,"[3]; day 3, left hindpaw",10.59 ± 0.93%
same,% Changes of HWL to Mechanical Stimulation,"[3]; day 3, right hindpaw",10.08 ± 1.05%
same,% Changes of HWL to Mechanical Stimulation,"[3]; day 4, left hindpaw",−0.62 ± 1.45%
same,% Changes of HWL to Mechanical Stimulation,"[3]; day 4, right hindpaw",−0.76 ± 2.32%
